Assay [1] deals with AKT phosphorylation in cardiomyocytes. The experiment in a line: Effect of neuregulin peptides on the phosphorylation of AKT in cardiomyocytes (western blot). The assay is classed as cell-based, rat. As to conditions: cardiac cells from left ventricles of neonatal rats, different concentrations, 20 minutes, FIG. 1. The protocol:
To study the effect of synthesized peptides on ErbB2 and ErbB4 signaling in cardiomyocytes, cardiac cells extracted from left ventricles of neonatal rats were used.
Cardiac cells were grown in media with serum for 2 days. After the cells reached about 80% confluence, the media was changed to serum free media. After another 24 hours, different amounts of synthesized neuregulin peptides or neuregulin were added into separate wells containing the cells for 20 minutes. The media was then aspirated and gel loading buffer was added to lyse the cells. The sample was then harvested and loaded into a separate well of gel for electrophoresis and western blot analysis.
In general terms: A western blot detects proteins with antibodies after separation by electrophoresis.

Assay [2] has as its target T1, ErbB2 receptor (Homo sapiens, UniProt P04626+P21860).
T1 construct: endogenous in cells; host or cells: MCF-7
The experiment in a line: Receptor binding: neuregulin-induced ErbB2 phosphorylation in MCF-7 cells (ErbB2 antibody H4 capture, anti-phosphotyrosine ELISA). The assay is classed as cell-based. The following applies: 20 min at 37° C., concentration achieving 50% of maximum OD value at 450 nm. In general terms: In an ELISA, binding on a coated surface is turned into a signal by an enzyme label.
From the text: Briefly, the assay measures neuregulin induced ErbB2 activation and phosphorylation on the adherent breast carcinoma cell line, MCF-7. Membrane proteins are solubilized via Triton X-100 lysis and the receptor is captured in ELISA wells coated with ErbB2-specific antibodies (e.g., H4) with no cross-reaction to ErbB3 or ErbB4. The degree of receptor phosphorylation is then quantified by antiphosphotyrosine ELISA.
MCF-7 cells was harvested, counted, pelleted and resuspended into DMEM (with 10% serum and 9 μg/ml insulin) at 5×10^4 cells/ml. 100 μl cell suspension was added to each well of 96 well plate and the plate was incubated at 37° C. overnight. The cells were then washed 3 times with PBS and grew in serum free DMEM for another 24 hours.
ErbB2 antibody H4 (Zensun, anti-ErbB2 monoclonal antibody) was diluted to 6 μg/ml by coating buffer (50 mM Na2CO3—NaHCO3, pH9.6), and added to 96 well plate 50 μl/well. The plate was left at 4° C. overnight to coat with antibody.
DMEM was added to two wells as blank. The plate was incubated at 37° C. for 20 min. The cells were washed once with PBS before adding 100 μl/well lysis buffer (50 mM Hepes, pH 8.0, 150 mM NaCl, 2 mM sodium orthovanadate, 0.01% thimerosal, 1% Triton X-100 and one protease inhibitor cocktail tablet per 25 ml solution) and lysing at 4° C. for 30 min. […]

As to `CSCC[C@@H]1NC(=O)[C@H](Cc2ccccc2)NC(=O)[C@@H]2CSSC[C@H](NC(=O)[C@H](CCCCN)NC(=O)[C@@H](NC(=O)[C@H](CC(C)C)NC(=O)[C@H](Cc3c[nH]cn3)NC(=O)[C@@H](N)CO)C(C)C)C(=O)N[C@@H](C)C(=O)N[C@@H](CCC(=O)O)C(=O)N[C@@H](CCCCN)C(=O)N[C@@H](CCC(=O)O)C(=O)N[C@@H](CCCCN)C(=O)N[C@@H]([C@@H](C)O)C(=O)N[C@@H](Cc3ccccc3)C(=O)N[C@@H](CSSC[C@@H](C(=O)N[C@@H](CCCCN)C(=O)N[C@H]3CSSC[C@@H](C(=O)N[C@@H](CCC(N)=O)C(=O)N[C@@H](CC(N)=O)C(=O)N[C@@H](Cc4ccc(O)cc4)C(=O)N[C@H](C(=O)N[C@@H](CCSC)C(=O)N[C@@H](C)C(=O)N[C@@H](CO)C(=O)N[C@@H](Cc4ccccc4)C(=O)N[C@@H](Cc4ccc(O)cc4)C(=O)N[C@@H](CCCCN)C(=O)O)C(C)C)NC(=O)[C@H](CCCNC(=N)N)NC(=O)[C@H](CC(=O)O)NC(=O)CNC(=O)[C@H]([C@@H](C)O)NC(=O)[C@H](Cc4ccccc4)NC(=O)[C@H](CCC(=O)O)NC(=O)[C@H](CC(N)=O)NC(=O)[C@@H]4CCCN4C3=O)NC(=O)[C@H](CC(C)C)NC(=O)[C@H](Cc3ccc(O)cc3)NC(=O)[C@H](CCCNC(=N)N)NC(=O)[C@H](CO)NC(=O)[C@@H]3CCCN3C(=O)[C@H](CC(N)=O)NC(=O)[C@H](CO)NC(=O)[C@H](CC(C)C)NC(=O)[C@H](CC(=O)O)NC(=O)[C@H](CCCCN)NC(=O)[C@H](C(C)C)NC1=O)C(=O)N[C@@H](C(C)C)C(=O)N[C@@H](CC(N)=O)C(=O)NCC(=O)NCC(=O)N[C@@H](CCC(=O)O)C(=O)N2` [NRG55], the “effect on AKT phosphorylation compared with NRG” value (from here on “effect … compared with NRG”) in assay [1] is reported as “much stronger effect than NRG”.

As to `CSCC[C@@H]1NC(=O)[C@H](Cc2ccccc2)NC(=O)[C@@H]2CSSC[C@H](NC(=O)[C@H](CCCCN)NC(=O)[C@@H](NC(=O)[C@H](CC(C)C)NC(=O)[C@H](Cc3c[nH]cn3)NC(=O)[C@@H](N)CO)C(C)C)C(=O)N[C@@H](C)C(=O)N[C@@H](CCC(=O)O)C(=O)N[C@@H](CCCCN)C(=O)N[C@@H](CCC(=O)O)C(=O)N[C@@H](CCCCN)C(=O)N[C@@H]([C@@H](C)O)C(=O)N[C@@H](Cc3ccccc3)C(=O)N[C@@H](CSSC[C@@H](C(=O)N[C@@H](CCCCN)C(=O)N[C@H]3CSSC[C@@H](C(=O)N[C@@H](CCC(N)=O)C(=O)N[C@@H](CC(N)=O)C(=O)N[C@@H](Cc4ccc(O)cc4)C(=O)N[C@H](C(=O)N[C@@H](CCSC)C(=O)N[C@@H](C)C(=O)N[C@@H](CO)C(=O)N[C@@H](Cc4ccccc4)C(=O)N[C@@H](Cc4ccc(O)cc4)C(=O)N[C@@H](CCCCN)C(=O)N[C@@H](C)C(=O)N[C@@H](CCC(=O)O)C(=O)O)C(C)C)NC(=O)[C@H](CCCNC(=N)N)NC(=O)[C@H](CC(=O)O)NC(=O)CNC(=O)[C@H]([C@@H](C)O)NC(=O)[C@H](Cc4ccccc4)NC(=O)[C@H](CCC(=O)O)NC(=O)[C@H](CC(N)=O)NC(=O)[C@@H]4CCCN4C3=O)NC(=O)[C@H](CC(C)C)NC(=O)[C@H](Cc3ccc(O)cc3)NC(=O)[C@H](CCCNC(=N)N)NC(=O)[C@H](CO)NC(=O)[C@@H]3CCCN3C(=O)[C@H](CC(N)=O)NC(=O)[C@H](CO)NC(=O)[C@H](CC(C)C)NC(=O)[C@H](CC(=O)O)NC(=O)[C@H](CCCCN)NC(=O)[C@H](C(C)C)NC1=O)C(=O)N[C@@H](C(C)C)C(=O)N[C@@H](CC(N)=O)C(=O)NCC(=O)NCC(=O)N[C@@H](CCC(=O)O)C(=O)N2` [NRG57], the “effect … compared with NRG” value in assay [1] is on record as “almost have the same effect as NRG”.

Regarding `CSCC[C@@H]1NC(=O)[C@H](Cc2ccccc2)NC(=O)[C@@H]2CSSC[C@H](NC(=O)[C@H](CCCCN)NC(=O)[C@@H](NC(=O)[C@H](CC(C)C)NC(=O)[C@H](Cc3c[nH]cn3)NC(=O)[C@@H](N)CO)C(C)C)C(=O)N[C@@H](C)C(=O)N[C@@H](CCC(=O)O)C(=O)N[C@@H](CCCCN)C(=O)N[C@@H](CCC(=O)O)C(=O)N[C@@H](CCCCN)C(=O)N[C@@H]([C@@H](C)O)C(=O)N[C@@H](Cc3ccccc3)C(=O)N[C@@H](CSSC[C@@H](C(=O)N[C@@H](CCCCN)C(=O)N[C@H]3CSSC[C@@H](C(=O)N[C@@H](CCC(N)=O)C(=O)N[C@@H](CC(N)=O)C(=O)N[C@@H](Cc4ccc(O)cc4)C(=O)N[C@H](C(=O)N[C@@H](CCSC)C(=O)N[C@@H](C)C(=O)N[C@@H](CO)C(=O)N[C@@H](Cc4ccccc4)C(=O)N[C@@H](Cc4ccc(O)cc4)C(=O)N[C@@H](CCCCN)C(=O)N[C@@H](C)C(=O)N[C@@H](CCC(=O)O)C(=O)N[C@@H](CCC(=O)O)C(=O)N[C@@H](CC(C)C)C(=O)O)C(C)C)NC(=O)[C@H](CCCNC(=N)N)NC(=O)[C@H](CC(=O)O)NC(=O)CNC(=O)[C@H]([C@@H](C)O)NC(=O)[C@H](Cc4ccccc4)NC(=O)[C@H](CCC(=O)O)NC(=O)[C@H](CC(N)=O)NC(=O)[C@@H]4CCCN4C3=O)NC(=O)[C@H](CC(C)C)NC(=O)[C@H](Cc3ccc(O)cc3)NC(=O)[C@H](CCCNC(=N)N)NC(=O)[C@H](CO)NC(=O)[C@@H]3CCCN3C(=O)[C@H](CC(N)=O)NC(=O)[C@H](CO)NC(=O)[C@H](CC(C)C)NC(=O)[C@H](CC(=O)O)NC(=O)[C@H](CCCCN)NC(=O)[C@H](C(C)C)NC1=O)C(=O)N[C@@H](C(C)C)C(=O)N[C@@H](CC(N)=O)C(=O)NCC(=O)NCC(=O)N[C@@H](CCC(=O)O)C(=O)N2` [NRG59], the “effect … compared with NRG” value in assay [1] is “almost have the same effect as NRG”.

B1: SHLVKCAEKEKTFCVNGGECFMVKDLSNPSRYLCKCPNEFTGDRCQNYVMASFYKAEELYQ (protein)
chain: SHLVKCAEKEKTFCVNGGECFMVKDLSNPSRYLCKCPNEFTGDRCQNYVMASFYKAEELYQ
modifications: chains of the parent or of the whole protein
On to B1, for which, in assay [2], the EC50 (commonly the concentration at which the effect is half-maximal) was determined as 1.439 µg/mL.

B2: NRG: full length wild type neuregulin β2 peptide (protein)
chain: SHLVKCAEKEKTFCVNGGECFMVKDLSNPSRYLCKCPNEFTGDRCQNYVMASFYKAEELYQ
In turn, B2 came in with an EC50 in assay [2] of 0.2772 µg/mL.

Values taken from patent US8609620B2, “Neuregulin peptides and their use” (Zensun (Shanghai) Science & Technology Ltd., priority 2008, dated 2013).
